Test results: the supplement of paper PMC10331698
± gives the standard deviation of the averaged measurements.

What was measured:
Test in all cases: LOEC (log10 uM (lowest observed effect concentration))
[1] = compound: C=CC(=O)OCC(F)(F)C(F)(F)C(F)(F)C(F)(F)COC(=O)C=C [1H,1H,6H,6H-Perfluorohexane-1,6-diol diacrylate]
Method: (§1)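 BioMAP Diversity Plus panel in human primary cell co-cultures, 4 concentrations in duplicate blinded samples. Responses are log10 fold change versus DMSO control, processed with tcpl v2.1.0. A hit is called when responses at any concentration exceed the cutoff (the larger of 3*bmad or log10(1.2)); the lowest observed effect concentration (modl_ga, log10 uM) is reported for hits.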

[2] = compound: OCCCC(F)(F)C(F)(F)C(F)(F)C(F)(F)C(F)(F)C(F)(F)C(F)(F)C(F)(F)F [3-(Perfluorooctyl)propanol]
Method: as §1

[3] = compound: FC(F)(I)C(F)(F)C(F)(F)C(F)(F)C(F)(F)C(F)(F)I [1,6-Diiodoperfluorohexane]
Method: as §1

[4] = compound: OCCC(F)(F)C(F)(F)C(F)(F)C(F)(F)C(F)(F)C(F)(F)C(F)(F)C(F)(F)F [8:2 Fluorotelomer alcohol]
Method: as §1

Perfluoropinacol = compound: OC(C(F)(F)F)(C(F)(F)F)C(O)(C(F)(F)F)C(F)(F)F [Perfluoropinacol]
Method: as §1

[5] = compound: O=C(CC(=O)C(F)(F)C(F)(F)C(F)(F)F)c1cccs1 [(Perfluorobutyryl)-2-thenoylmethane]
Method: as §1

[6] = compound: OCC(F)(F)C(F)(F)C(F)(F)C(F)(F)C(F)(F)C(F)(F)C(F)(F)C(F)(F)CO [1H,1H,10H,10H-Perfluorodecane-1,10-diol]
Method: as §1

Row | Test System | LOEC (log10 uM) [1] | LOEC (log10 uM) [2] | LOEC (log10 uM) [3] | LOEC (log10 uM) [4] | LOEC (log10 uM) (Perfluoropinacol) | LOEC (log10 uM) [5] | LOEC (log10 uM) [6]
1 | CASM3C SRB down | 1.78 | 1.54 ± 0.34 | 1.3 | 1.78 | 1.78 | 1.78 | –
2 | BE3C MMP1 down | – | – | – | – | – | 1.78 | –
3 | 3C uPAR down | 1.3 | 1.54 ± 0.34 | 1.78 | 1.3 | 0.845 | 0.845 | –
4 | LPS SRB down | 1.3 | 1.3 | 1.78 | 1.3 | 1.3 | 1.3 | –
5 | LPS Thrombomodulin down | – | – | – | – | 1.07 ± 0.32 | – | –
6 | BE3C ICAM1 down | 1.54 ± 0.34 | 1.78 | 1.78 | 1.54 ± 0.34 | – | 1.3 | 1.78
7 | MyoF Decorin down | 1.3 | 1.3 | 1.3 | 1.3 | 1.78 | – | –
8 | BF4T CD90 down | – | 1.54 ± 0.34 | – | – | – | – | –
9 | MyoF bFGF down | 1.3 | 1.3 | 0.845 | 1.3 | – | – | –
10 | MyoF TIMP1 down | 1.3 | 1.3 | 1.3 | 1.3 | – | – | –
11 | SAg CD69 down | 1.3 | 1.54 ± 0.34 | 1.78 | 1.54 ± 0.34 | 1.3 | 0.845 | –
12 | hDFCGF SRB down | 0.845 | 0.845 | 0.845 | 1.3 | – | – | 1.54 ± 0.34
13 | BE3C IL1a down | 1.07 ± 0.32 | 1.78 | 1.78 | 1.3 | 1.3 | 1.3 | –
14 | BF4T Keratin818 down | – | 1.54 ± 0.34 | 1.78 | – | – | 1.3 | –
15 | KF3CT IL1a down | 1.54 ± 0.34 | 0.845 | 1.3 | 1.3 | – | – | –
16 | hDFCGF SRB up | – | – | – | – | – | 0.845 | –
17 | LPS TissueFactor down | 1.3 | 1.31 ± 0.66 | 1.78 | 1.78 | 1.78 | – | –
18 | CASM3C uPAR down | 1.78 | 1.78 | 1.78 | 1.78 | 1.54 ± 0.34 | 1.78 | –
19 | CASM3C TissueFactor up | 1.78 | – | – | – | – | – | –
20 | KF3CT ICAM1 down | 1.3 | 1.3 | 1.07 ± 0.32 | 1.3 | – | – | 1.78
21 | CASM3C TissueFactor down | – | 1.78 | – | 1.78 | – | 0.845 | –
22 | 4H SRB down | 1.3 | 1.3 | 1.54 ± 0.34 | 1.3 | 1.3 | 1.3 | –
23 | CASM3C Thrombomodulin up | – | – | 1.3 | – | – | – | –
24 | 3C VCAM1 down | 1.3 | 1.3 | 1.54 ± 0.34 | 1.3 | 1.78 | 1.3 | –
25 | CASM3C IL8 down | – | 1.78 | 1.54 ± 0.34 | – | – | – | –
26 | BF4T IL8 down | – | 1.78 | 1.3 | – | – | – | –

Row | Test System | LOEC (log10 uM) [1] | LOEC (log10 uM) [2] | LOEC (log10 uM) [3] | LOEC (log10 uM) [4] | LOEC (log10 uM) (Perfluoropinacol) | LOEC (log10 uM) [5] | LOEC (log10 uM) [6]
27 | 3C ICAM1 down | 1.54 ± 0.34 | 1.3 | 1.78 | 1.78 | – | 1.78 | –
28 | 3C Thrombomodulin up | – | – | 1.54 ± 0.34 | – | – | – | –
29 | 3C Eselectin down | 1.3 | 1.54 ± 0.34 | 1.54 ± 0.34 | – | 1.54 ± 0.34 | 1.78 | –
30 | hDFCGF IL8 down | 1.3 | 1.3 | 0.845 | 1.3 | – | – | 1.78
31 | SAg Eselectin down | 0.845 | 1.78 | 1.78 | 1.54 ± 0.34 | 1.3 | 0.845 | –
32 | BF4T ICAM1 down | 1.3 | 1.3 | 1.07 ± 0.32 | 1.78 | – | 1.78 | 1.3
33 | LPS MCP1 down | 1.3 | 1.07 ± 0.32 | 1.78 | 1.3 | 1.3 | 1.3 | –
34 | 3C MCP1 down | 1.3 | 1.3 | 1.54 ± 0.34 | 1.78 | 1.78 | 1.3 | –
35 | BF4T uPA down | 1.78 | 1.54 ± 0.34 | 1.54 ± 0.34 | 1.78 | – | 1.54 ± 0.34 | –
36 | KF3CT IP10 down | 1.3 | 1.3 | 1.3 | 1.3 | 1.78 | – | –
37 | BE3C tPA down | 1.54 ± 0.34 | 1.78 | 1.78 | 1.3 | 1.3 | 1.3 | –
38 | CASM3C HLADR down | 1.54 ± 0.34 | 1.78 | 1.3 | 1.3 | 1.07 ± 0.32 | 1.78 | –
39 | 3C MIG down | 1.3 | 1.78 | 1.78 | – | 1.78 | 1.78 | –
40 | LPS Eselectin down | 1.3 | 0.845 | 1.54 ± 0.34 | 1.78 | 1.78 | – | –
41 | 3C TissueFactor down | 1.07 ± 0.32 | 1.3 | 1.78 | 1.54 ± 0.34 | 1.3 | 1.3 | –
42 | hDFCGF MMP1 down | 1.3 | 1.3 | 0.845 | 1.3 | – | 1.3 | 1.78
43 | CASM3C MCSF down | 1.07 ± 0.32 | 1.3 | 1.3 | 1.54 ± 0.34 | 1.78 | 1.78 | –
44 | LPS CD40 down | 0.845 | 1.3 | 1.78 | 1.3 | 1.3 | 1.54 ± 0.34 | –
45 | LPS IL8 down | 1.3 | 0.845 | 1.54 ± 0.34 | 1.54 ± 0.34 | – | – | –
46 | BE3C PAI1 down | – | 1.78 | 1.54 ± 0.34 | 1.3 | 1.07 ± 0.32 | 0.301 | 1.78
47 | CASM3C MIG down | 0.845 | 1.3 | 1.3 | 1.78 | 1.78 | 1.54 ± 0.34 | –
48 | SAg MCP1 down | 1.07 ± 0.32 | 1.54 ± 0.34 | 1.78 | 1.78 | 1.54 ± 0.34 | 1.3 | –
49 | SAg IL8 down | 1.3 | 1.78 | 1.78 | 1.78 | 1.54 ± 0.34 | 1.07 ± 0.32 | –
50 | KF3CT ICAM1 up | – | – | – | – | 1.78 | – | –
51 | KF3CT TIMP2 down | 1.07 ± 0.32 | 1.3 | 1.07 ± 0.32 | 1.3 | 1.78 | – | 1.78
